PubChem BioAssay (NCI)
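Cultured in 96-well plates, cells were exposed to test compound for 48 hours across five concentrations. At the TGI there is no net growth.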

Legend:
Experiment in all cases: NCI anticancer screen, dose series, 48 h
[1] = tested on: SN12C renal
[2] = tested on: OVCAR-4 ovarian
[3] = tested on: RXF 393 renal
[4] = tested on: HL-60(TB) leukemia
[5] = tested on: SW-620 colon
[6] = tested on: MCF7 breast
[7] = tested on: OVCAR-8 ovarian
[8] = tested on: HOP-92 NSCLC
[9] = tested on: SR leukemia
[10] = tested on: OVCAR-5 ovarian
[11] = tested on: EKVX NSCLC
[12] = tested on: DU-145 prostate
[13] = tested on: HOP-62 NSCLC
[14] = tested on: PC-3 prostate
[15] = tested on: A549 NSCLC
[16] = tested on: A498 renal
[17] = tested on: HT29 colon
[18] = tested on: KM12 colon
[19] = tested on: MOLT-4 leukemia
[20] = tested on: NCI-H23 lung
[21] = tested on: UO-31 renal
[22] = tested on: HS 578T breast
[23] = tested on: SNB-19 CNS
[24] = tested on: ACHN renal
[25] = tested on: NCI/ADR-RES ovarian
[26] = tested on: COLO 205 colon
[27] = tested on: M14 melanoma
[28] = tested on: SF-539 CNS
[29] = tested on: T-47D breast
[30] = tested on: RPMI-8226 leukemia
[31] = tested on: HCT-116 colon
[32] = tested on: SK-MEL-28 melanoma
[33] = tested on: K-562 leukemia
[34] = tested on: LOX IMVI melanoma
[35] = tested on: OVCAR-3 ovarian
[36] = tested on: CAKI-1 renal
[37] = tested on: MDA-N
[38] = tested on: SF-295 CNS
[39] = tested on: MDA-MB-231 breast
[40] = tested on: SNB-75 CNS
[41] = tested on: CCRF-CEM leukemia
[42] = tested on: MDA-MB-435
[43] = tested on: NCI-H522 lung
[44] = tested on: UACC-257 melanoma
[45] = tested on: SK-MEL-5 melanoma
[46] = tested on: HCC-2998 colon
[47] = tested on: SF-268 CNS
[48] = tested on: MALME-3M melanoma
[49] = tested on: NCI-H460 lung
[50] = tested on: TK-10 renal
[51] = tested on: SK-OV-3 ovarian
[52] = tested on: UACC-62 melanoma
[53] = tested on: 786-0 renal
[54] = tested on: NCI-H226 lung
[55] = tested on: IGROV1 ovarian
[56] = tested on: HCT-15 colon
[57] = tested on: U251 CNS
[58] = tested on: SK-MEL-2 melanoma

CC(CO)CCNc1ncnc2c1ncn2CCC#N (stereo not drawn)
TGI [1]: > 100 µM | TGI [2]: > 100 µM | TGI [3]: > 100 µM | TGI [4]: > 100 µM | TGI [5]: > 100 µM | TGI [6]: > 100 µM | TGI [7]: > 100 µM | TGI [8]: > 100 µM | TGI [9]: > 100 µM | TGI [10]: > 100 µM | TGI [11]: > 100 µM | TGI [12]: > 100 µM | TGI [13]: > 100 µM | TGI [14]: > 100 µM | TGI [15]: > 100 µM | TGI [16]: > 100 µM | TGI [17]: > 100 µM | TGI [18]: > 100 µM | TGI [19]: > 100 µM | TGI [20]: > 100 µM | TGI [21]: > 100 µM | TGI [22]: > 100 µM | TGI [23]: > 100 µM | TGI [24]: > 100 µM | TGI [25]: > 100 µM | TGI [26]: > 100 µM | TGI [27]: > 100 µM | TGI [28]: > 100 µM | TGI [29]: > 100 µM | TGI [30]: > 100 µM | TGI [31]: > 100 µM | TGI [32]: > 100 µM | TGI [33]: > 100 µM | TGI [34]: > 100 µM | TGI [35]: > 100 µM | TGI [36]: > 100 µM | TGI [37]: > 100 µM | TGI [38]: > 100 µM | TGI [39]: > 100 µM | TGI [40]: > 100 µM | TGI [41]: > 100 µM | TGI [42]: > 100 µM | TGI [43]: > 100 µM | TGI [44]: > 100 µM | TGI [45]: > 100 µM | TGI [46]: > 100 µM | TGI [47]: > 100 µM | TGI [48]: > 100 µM | TGI [49]: > 100 µM | TGI [50]: > 100 µM | TGI [51]: > 100 µM | TGI [52]: > 100 µM | TGI [53]: > 100 µM | TGI [54]: > 100 µM | TGI [55]: > 100 µM

COc1ccc(Cc2c(-c3ccc(C)cc3)n[nH]c(=O)c2C2C(=O)N(c3ccccc3)N=C2c2ccccc2)cc1 (stereo not drawn)
TGI [1]: > 95.6 µM | TGI [2]: > 100 µM | TGI [3]: 57 µM | TGI [4]: 67.6 µM | TGI [5]: > 100 µM | TGI [6]: > 91.3 µM | TGI [7]: > 96.6 µM | TGI [8]: 75.3 µM | TGI [9]: > 79.3 µM | TGI [10]: > 95.7 µM | TGI [11]: 83.1 µM | TGI [12]: > 100 µM | TGI [13]: > 100 µM | TGI [14]: > 91.8 µM | TGI [15]: 84.3 µM | TGI [16]: 65.4 µM | TGI [17]: > 100 µM | TGI [18]: 57.1 µM | TGI [19]: > 67.7 µM | TGI [20]: 72.1 µM | TGI [21]: > 100 µM | TGI [22]: 82.9 µM | TGI [23]: > 100 µM | TGI [24]: > 100 µM | TGI [25]: 58 µM | TGI [26]: 40.3 µM | TGI [27]: 81.8 µM | TGI [28]: 56.1 µM | TGI [29]: > 100 µM | TGI [30]: 80.3 µM | TGI [31]: 46.4 µM | TGI [32]: > 90.3 µM | TGI [33]: > 76.6 µM | TGI [56]: > 100 µM | TGI [34]: 46.6 µM | TGI [35]: 45.8 µM | TGI [36]: > 88.6 µM | TGI [37]: 58.3 µM | TGI [38]: 60.8 µM | TGI [39]: > 90.4 µM | TGI [57]: > 100 µM | TGI [40]: 81.3 µM | TGI [41]: > 78.8 µM | TGI [42]: 45 µM | TGI [43]: > 100 µM | TGI [44]: 81.2 µM | TGI [45]: 38.9 µM | TGI [46]: 79.5 µM | TGI [47]: > 100 µM | TGI [48]: 65.2 µM | TGI [58]: 52.5 µM | TGI [49]: > 89.3 µM | TGI [50]: 87.2 µM | TGI [51]: > 100 µM | TGI [52]: 40.4 µM | TGI [53]: > 100 µM | TGI [54]: 81.9 µM | TGI [55]: 85.1 µM
